Assay results taken from patent publication US12466821B2 (Novartis AG, priority 2018, dated 2025).

Molecular target: human HSV DNA polymerase UL30 (Human herpesvirus 1 (strain 17) (HHV-1) (Human herpes simplex virus 1), UniProt P04293)
Experiment: HSV polymerase biochemical assay (molecular beacon-based)
Procedure, shortened: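 Full-length wild-type N-terminal MBP-fusion polymerases from sf9 cells were used at 100 pM (CMV) or 625 pM (HSV) in Tris pH 7.5, 10 mM MgCl2, and preincubated with inhibitor for 30 min at RT. Reactions with 1.25 uM each dNTP, 200 nM primer and 100 nM molecular beacon ran 60 min (CMV) or 20 min (HSV) at RT. Fluorescence was read at 480/535 nm and IC50 derived.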

N#Cc1ccc(CNC(=O)c2ccc3n(c2=O)CCN(CC2(S(=O)(=O)C4CC4)CC2)C3=O)cc1 [Example 1, N-(4-cyanobenzyl)-2-((1-(cyclopropylsulfonyl)cyclopropyl)methyl)-1,6-dioxo-2,3,4,6-tetrahydro-1H-pyrido[1,2-a]pyrazine-7-carboxamide]
IC50: 27.3 nM
